Laboratory results from patent US20260102359A1, “COMBINATION TREATMENT OF DERMAL AND TRANSDERMAL FIBROTIC DISEASES, DISORDERS AND ASSOCIATED PAIN AND INFLAMMATION” (ERESINA, LLC, priority 2022, published 2026).
Where a name gives a salt, the structure may show the parent alone.

test system: hDMFa myofibroblast cells

SMILES | Compound Myofibroblast Cytotoxicity Activity
Cc1cncc(CN2CCC(=C3c4ccc(Cl)cc4CCc4cccnc43)CC2)c1.O=C(O)/C=C/C(=O)O [Cmpd 844, Rupatadine Fumarate] | +++
C[C@H]1O[C@@H](O[C@H]2CC[C@@]3(C)[C@@H](CC[C@]4(C)[C@@H]3C=C[C@]35OC[C@@]6(CCC(C)(C)C[C@H]63)[C@@H](O)C[C@]54C)[C@]2(C)CO)[C@H](O)[C@@H](O[C@@H]2O[C@H](CO)[C@@H](O)[C@H](O)[C@H]2O)[C@H]1O [Cmpd 846, Saikosaponin A] | +++++
CC(C)(C)NCC(O)c1ccc(O)c(CO)c1 (stereo not drawn) [Cmpd 847, Salbutamol] | ++
OCc1cc(C(O)CNCCCCCCOCCCCc2ccccc2)ccc1O (stereo not drawn) [Cmpd 849, Salmeterol xinafoate] | +++
C[n+]1cc2c3c(ccc2c2ccc4cc5c(cc4c21)OCO5)OCO3 [Cmpd 850, Sanguinarine] | +++++
C[n+]1cc2c3c(ccc2c2ccc4cc5c(cc4c21)OCO5)OCO3 [Cmpd 851, Sanguinarine chloride] | ++++
CC(C)(C)NC(=O)[C@@H]1C[C@@H]2CCCC[C@@H]2CN1C[C@@H](O)[C@H](Cc1ccccc1)NC(=O)[C@H](CC(N)=O)NC(=O)c1ccc2ccccc2n1 [Cmpd 852, Saquinavir mesylate] | ++++
N#C[C@@H]1C[C@@H]2C[C@@H]2N1C(=O)[C@@H](N)C12CC3CC(CC(O)(C3)C1)C2 [Cmpd 854, Saxagliptin hydrate] | ++
COc1cc2ccc(=O)oc2cc1O [Cmpd 857, Scopoletin] | ++
O=C(O)CCCCCCCCC(=O)O.O=C(O)CCCCCCCCC(=O)O [Cmpd 858, sebacate (decanedioate)] | ++
Clc1ccc(C(Cn2ccnc2)OCc2csc3c(Cl)cccc23)c(Cl)c1 (stereo not drawn) [Cmpd 860, Sertaconazole nitrate] | +++++
CN[C@H]1CC[C@@H](c2ccc(Cl)c(Cl)c2)c2ccccc21 [Cmpd 861, Sertraline HCl] | ++++
CCCc1nn(C)c2c(=O)[nH]c(-c3cc(S(=O)(=O)N4CCN(C)CC4)ccc3OCC)nc12.CS(=O)(=O)O [Cmpd 862, Sildenafil mesylate] | ++
CC(C)(C)C(=O)Oc1ccc(S(=O)(=O)Nc2ccccc2C(=O)NCC(=O)O)cc1 [Cmpd 866, Sivelestat (ONO-5046)] | ++
O=C([O-])c1ccccc1.[Na+] [Cmpd 870, Sodium benzoate] | ++++
CCCCCCCCCCCCOS(=O)(=O)O [Cmpd 871, Sodium dodecyl sulfate] | +++++
O=P([O-])([O-])O.[Na+].[Na+] [Cmpd 874, Sodium phosphate dibasic] | ++++
C[C@H](CCC(=O)NCCS(=O)(=O)[O-])[C@H]1CC[C@H]2[C@@H]3[C@@H](O)C[C@@H]4C[C@H](O)CC[C@]4(C)[C@H]3CC[C@]12C.[Na+] [Cmpd 877, Sodium Tauroursodeoxycholate (TUDC)] | ++
C/C=C/C=C/C(=O)O [Cmpd 881, Sorbic acid] | ++
OC[C@@H](O)[C@@H](O)[C@H](O)[C@@H](O)CO [Cmpd 882, Sorbitol] | ++++
CC(C)NCC(O)c1ccc(NS(C)(=O)=O)cc1 (stereo not drawn) [Cmpd 883, Sotalol hydrochloride] | +++

SMILES | Compound Myofibroblast Cytotoxicity Activity
CN1CCN(c2nc(C3=C(c4c[nH]c5ccccc45)C(=O)NC3=O)c3ccccc3n2)CC1 [Cmpd 884, Sotrastaurin (AEB071)] | ++
CN[C@@H]1[C@H](O)[C@H](NC)[C@H]2O[C@@]3(O)C(=O)C[C@@H](C)O[C@H]3O[C@@H]2[C@H]1O [Cmpd 885, Spectinomycin (hydrochloride hydrate)] | +++
NCCCNCCCCNCCCN [Cmpd 887, Spermine] | ++
CCCCCCCCCCCCCCCCCC(=O)O [Cmpd 889, Stearic Acid] | +++
O=C(O)CCC(=O)Nc1ccc(S(=O)(=O)Nc2nccs2)cc1 [Cmpd 891, Succinylsulfathiazole] | ++
Nc1ccc(S(=O)(=O)NC(=O)c2ccccc2)cc1 [Cmpd 893, Sulfabenzamide] | ++
CC(=O)NS(=O)(=O)c1ccc(N)cc1 [Cmpd 894, Sulfacetamide sodium salt hydrate] | ++
Cc1ccnc(NS(=O)(=O)c2ccc(N)cc2)n1 [Cmpd 895, Sulfamerazine] | +++
Cc1nnc(NS(=O)(=O)c2ccc(N)cc2)s1 [Cmpd 896, Sulfamethizole] | ++++
Nc1ccc(S(N)(=O)=O)cc1 [Cmpd 898, Sulfanilamide] | ++++
Nc1ccc(S(=O)(=O)Nc2ccnn2-c2ccccc2)cc1 [Cmpd 899, Sulfaphenazole] | +++
Nc1ccc(S(=O)(=O)Nc2nccs2)cc1 [Cmpd 900, Sulfathiazole] | ++++
COc1cc(O)c(C(=O)c2ccccc2)cc1S(=O)(=O)O [Cmpd 901, Sulisobenzone] | ++
CC1(C)S[C@@H]2[C@H](NC(=O)[C@H](N)c3ccccc3)C(=O)N2[C@H]1C(=O)OCOC(=O)[C@@H]1N2C(=O)C[C@H]2S(=O)(=O)C1(C)C [Cmpd 902, Sultamicillin] | ++
Nc1c2c(nc3ccccc13)CCCC2 [Cmpd 906, Tacrine hydrochloride] | ++++
CC/C(=C(\c1ccccc1)c1ccc(OCCN(C)C)cc1)c1ccccc1 [Cmpd 911, Tamoxifen Citrate] | +++
Cc1coc2c1C(=O)C(=O)c1c-2ccc2c(C)cccc12 [Cmpd 912, Tanshinone I] | +++++
Cc1coc2c1C(=O)C(=O)c1c-2ccc2c1CCCC2(C)C [Cmpd 913, Tanshinone IIA] | +++++
Cc1c(S(=O)(=O)[O-])oc2c1C(=O)C(=O)c1c-2ccc2c1CCCC2(C)C.[Na+] [Cmpd 914, Tanshinone IIA---sulfonic sodium] | ++
Cn1nnc(-c2ccc(-c3ccc(N4C[C@H](CO)OC4=O)cc3F)cn2)n1 [Cmpd 920, Tedizolid HCl] | ++++
CO[C@H]1C[C@@H]2CC[C@@H](C)[C@@](O)(O2)C(=O)C(=O)N2CCCC[C@H]2C(=O)O[C@H]([C@H](C)C[C@@H]2CC[C@@H](OC(=O)C(C)(CO)CO)[C@H](OC)C2)CC(=O)[C@H](C)/C=C(\C)[C@@H](O)[C@@H](OC)C(=O)[C@H](C)C[C@H](C)/C=C/C=C/C=C/1C [Cmpd 924, Temsirolimus (CCl-779, NSC 683864)] | +++++

SMILES | Compound Myofibroblast Cytotoxicity Activity
COc1cc([C@@H]2c3cc4c(cc3[C@@H](O[C@@H]3O[C@@H]5CO[C@@H](c6cccs6)O[C@H]5[C@H](O)[C@H]3O)[C@H]3COC(=O)[C@H]23)OCO4)cc(OC)c1O [Cmpd 925, Teniposide] | ++
CN(C/C=C/C#CC(C)(C)C)Cc1cccc2ccccc12 [Cmpd 926, Terbinafine] | ++
CN(C/C=C/C#CC(C)(C)C)Cc1cccc2ccccc12 [Cmpd 927, Terbinafine HCl] | ++++
CC(C)N1CCN(c2ccc(OCC3COC(Cn4cncn4)(c4ccc(Cl)cc4Cl)O3)cc2)CC1 (stereo not drawn) [Cmpd 928, Terconazole] | ++
O=C(O)c1ccc(C(=O)O)cc1 [Cmpd 929, Terephthalic acid] | ++
CC1=CCC(O)(C(C)C)CC1 (stereo not drawn) [Cmpd 931, Terpinen-4-ol] | ++
COc1cc2c(cc1OC)C1CC(=O)C(CC(C)C)CN1CC2 (stereo not drawn) [Cmpd 933, Tetrabenazine] | +++
COc1ccc2cc1Oc1ccc(cc1)C[C@H]1c3cc(c(OC)cc3CCN1C)Oc1c(OC)c(OC)cc3c1[C@H](C2)N(C)CC3 [Cmpd 936, Tetrandrine] | ++
Cc1cnc(Nc2ccc(OCCN3CCCC3)cc2)nc1Nc1cccc(S(=O)(=O)NC(C)(C)C)c1 [Cmpd 937, TG101348 (SAR302503)] | ++++
Cc1ncc(C[n+]2csc(CCO)c2C)c(N)n1.Cl.[Cl-] [Cmpd 939, Thiamine HCl (Vitamin B1)] | ++
CSc1ccc2c(c1)N(CCC1CCCCN1C)c1ccccc1S2 (stereo not drawn) [Cmpd 940, Thioridazine HCl] | ++++
Cc1cn([C@H]2C[C@H](O)[C@@H](CO)O2)c(=O)[nH]c1=O [Cmpd 943, Thymidine] | ++
O=c1sn(-c2cccc3ccccc23)c(=O)n1Cc1ccccc1 [Cmpd 946, Tideglusib] | ++
Clc1ccc(C(Cn2ccnc2)OCc2ccsc2Cl)c(Cl)c1 (stereo not drawn) [Cmpd 947, Tioconazole] | +++
Nc1n[n+]([O-])c2ccccc2[n+]1[O-] [Cmpd 948, Tirapazamine] | ++++
O=C(O)Cc1cc(I)c(Oc2ccc(O)c(I)c2)c(I)c1 [Cmpd 949, Tiratricol] | +++
O=C1NC(=O)[C@@H](c2cn3c4c(cccc24)CCC3)[C@@H]1c1c[nH]c2ccccc12 [Cmpd 950, Tivantinib (ARQ 197)] | ++
Cc1ccc(S(=O)(=O)NC(=O)NN2CCCCCC2)cc1 [Cmpd 953, Tolazamide] | ++++
Cc1c(Cl)cccc1Nc1ccccc1C(=O)O [Cmpd 955, Tolfenamic Acid] | ++
Cc1cccc(N(C)C(=S)Oc2ccc3ccccc3c2)c1 [Cmpd 956, Tolnaftate] | ++++
CN(C)CCOc1ccc(/C(=C(/CCCl)c2ccccc2)c2ccccc2)cc1 [Cmpd 959, Toremifene Citrate] | +++
